Results from patent publication US20220041578A1, “ISOINDOLINE COMPOUND, AND PREPARATION METHOD, PHARMACEUTICAL COMPOSITION, AND APPLICATION OF ISOINDOLINE COMPOUND” (Shanghai Institute of Meteria Medica, Chinese Academy of …, priority 2018, published 2022).

Each compound was assayed on MM.1S cells (assay: Effect of the compound on the proliferation of MM.1S cells (MTS)). Conditions: Homo sapiens, MM1.S, 168 h, 7 days, read-out: Cell inhibitory activity (IC50).
Assay type: cell-based
Protocol: MM.1S cells were cultured with 1640 plus 10% fetal bovine serum and collected. The cell concentration was diluted according to the action time of 7 days, and 180 ul cell suspension was added to each well of the 96-well cell plate to make the cell count to be 20,000. 20 ul of DMSO with a final concentration of 0.2% was added to the control cell wells. The compound was diluted 5-fold with the 10 mM stock solution, and 20 ul was also added to the compound cell wells (the final concentration of DMSO is 0.2%). The cells were placed in a 37° C., 5% CO2 incubator and incubated for 7 days. After preparing the reaction solution according to the MTS kit (Promega, G5430), 20 μL was added to each well, incubated in a 37° C., 5% CO2 incubator for 3-4 h. Read the 490 nm absorbance value with a microtiter plate, and used the 690 nm absorbance value as the background value and OD490-OD690 as the final initial data. The formula for calculating the inhibition rate of the compound is: inhibition rate=(OD DMSO-ODcompound)/(ODDMSO-Oblank)×100%. The compound's proliferation inhibition IC50 was fitted by Graph Pad Prism 5.0. The experiment was repeated three times, and three parallel experiments were used to calculate the average and standard deviation each time.

| Compound | IC50 [nM] |
| --- | --- |
| O=C1CCC(N2Cc3c(OCC4CCC(c5ccc(OC(F)(F)F)cc5)CC4)cccc3C2=O)C(=O)N1 (stereo not drawn) [Compound 72, 3-(1-oxo-4-((4-(4-(trifluoromethoxy)phenyl)cyclohexyl)methoxy)isoindolin-2-) piperidine-2,6-dione] | < 150 |
| [2H]c1c([2H])c([2H])c(-n2cc(COc3cccc4c3CN(C3CCC(=O)NC3=O)C4=O)nn2)c([2H])c1[2H] (stereo not drawn) [Compound 78, 3-(1-oxo-4-((1-(phenyl-D5)-1H-1,2,3-triazol-4-yl)methoxy)isoindolin-2-yl) piperidine-2,6-dione] | < 150 |
| O=C1CCC(N2Cc3c(OCc4cn(-c5cccc(O)c5)nn4)cccc3C2=O)C(=O)N1 (stereo not drawn) [Compound 16, 3-(4-((1-(3-hydroxyphenyl)-1H-1,2,3-triazol-4-)methoxy)-1-oxoisoindolin-2-) piperidine-2,6-dione] | < 150 |
| O=C1CCC(N2Cc3c(OCc4cn(CCc5ccccc5)nn4)cccc3C2=O)C(=O)N1 (stereo not drawn) [Compound 49] | < 150 |
| C[C@]1(N2C(=O)c3cccc(OCc4cn(-c5ccc(OC(F)(F)F)cc5)nn4)c3C2=O)CCC(=O)NC1=O [Compound 35] | 150 to 20000 |
| O=C1CCC(N2Cc3c(NCc4cnc(-c5ccc(OC(F)(F)F)cc5)o4)cccc3C2=O)C(=O)N1 (stereo not drawn) [Compound 82] | < 150 |
| CN(C)C[C@H](Cc1ccccc1)n1cc(COc2cccc3c2CN(C2CCC(=O)NC2=O)C3=O)nn1 (stereo partly drawn) [Compound 56] | < 150 |
| C[C@]12CC3CC(n4cc(COc5cccc6c5CN(C5CCC(=O)NC5=O)C6=O)nn4)(C1)C[C@@](C)(C3)C2 (stereo partly drawn) [Compound 89, 3-(4-((1-((1R, 3R, 5S, 7R)-3,5-dimethyladamantin-1-yl)-1H-1,2,3-triazol-4-yl)methoxy)-1-isoindolin-2-yl) piperidin-2,6-dione] | > 20000 |
| O=C1CCC(N2Cc3c(OCCc4cn(-c5ccc(OC(F)(F)F)cc5)nn4)cccc3C2=O)C(=O)N1 (stereo not drawn) [Compound 61, 3-(1-oxo-4-(2-(1-(4-(trifluoromethoxy)phenyl)-1H-1,2,3-triazol-4-)ethoxy)isoindoline-2-) piperidine-2,6-dione] | < 150 |
| O=C1CCC(N2Cc3c(OCc4cnc(-c5ccc(OC(F)(F)F)cc5)o4)cc(F)cc3C2=O)C(=O)N1 (stereo not drawn) [Compound 80, 3-(6-fluoro-1-oxo-4-((2-(4-(trifluoromethoxy)phenyl)oxazol-5-yl)methoxy)isoindolin-2-yl) piperidine-2,6-dione] | < 150 |
| COCCn1ccc2cc(-n3cc(COc4cccc5c4CN([C@@]4(C)CCC(=O)NC4=O)C5=O)nn3)ccc21 [Compound 36, (S)-3-(4-((1-(1-(2-methoxyethyl)-1H-indol-5-)-1H-1,2,3-triazol-4-)methoxy)-1-oxoisoindolin-2-)-3-methylpiperidine-2,6-dione] | 150 to 20000 |
| O=C1CCC(N2Cc3c(OCc4cnc(-c5ccc(Cl)c(Cl)c5)o4)cccc3C2=O)C(=O)N1 (stereo not drawn) [Compound 91, 3-(4-((2-(3,4-dichlorophenyl)oxazol-5-yl)methoxy)-1-oxoisoindol-2-yl) piperidine-2,6-dione] | < 150 |
| O=C1CCC(N2Cc3c(OCC4CN(c5ccc(OC(F)(F)F)cc5)C4)cccc3C2=O)C(=O)N1 (stereo not drawn) [Compound 64, 3-(1-oxo-4-((1-(4-trifluoromethoxyphenyl)azetidin-3-)methoxy)isoindolin-2-) piperidine-2,6-dione] | 150 to 20000 |
| O=C1CCC(N2Cc3c(OCc4cn(Cc5cccc(N6CCOCC6)c5)nn4)cccc3C2=O)C(=O)N1 (stereo not drawn) [Compound 7, 3-(4-((1-(3-morpholinbenzyl)-1H-1,2,3-triazol-4-)methoxy)-1-oxoisoindolin-2-) piperidine-2,6-dione] | < 150 |
| C[C@@H](Cc1ccccc1)n1cc(COc2cccc3c2CN(C2CCC(=O)NC2=O)C3=O)nn1 (stereo partly drawn) [Compound 59, 3-(1-oxo-4-((1-((S)-1-phenylpropyl-2-)-1H-1,2,3-triazol-4-)methoxy)isoindolin-2-) piperidine-2,6-dione] | < 150 |
| C[C@H](Cc1ccccc1)n1cc(COc2cccc3c2CN(C2CCC(=O)NC2=O)C3=O)nn1 (stereo partly drawn) [Compound 58, 3-(1-oxo-4-((1-((R)-1-phenylpropyl-2-)-1H-1,2,3-triazol-4-)methoxy)isoindolin-2-) piperidine-2,6-dione] | < 150 |
| O=C1CCC(N2Cc3c(OCc4cn(C56CC7CC(CC(O)(C7)C5)C6)nn4)cccc3C2=O)C(=O)N1 [Compound 86, 3-(4-((1-((1R, 3S, 5R, 7S)-3-hydroxyadamantan-1-yl)-1H-1,2,3-triazol-4-yl)methoxy)-1-isoindolin-pyridin-2-yl) piperidin-2,6-dione] | > 20000 |

| Compound | IC50 [nM] |
| --- | --- |
| C[C@]1(N2Cc3c(OCc4cn(-c5ccc(OC(F)(F)F)cc5)nn4)cccc3C2=O)CCC(=O)NC1=O [Compound 34] | 150 to 20000 |
| O=C1CCC(N2Cc3c(CCCc4cnc(-c5ccc(OC(F)(F)F)cc5)o4)cccc3C2=O)C(=O)N1 (stereo not drawn) [Compound 63, 3-(1-oxo-4-(3-(2-(4-(trifluoromethoxy)phenyl)oxazol-5-yl)propyl)isoindolin-2-yl) piperidine-2,6-dione] | > 20000 |
| O=C1CCC(N2Cc3c(OCc4cn(-c5ccc(O)cc5)nn4)cccc3C2=O)C(=O)N1 (stereo not drawn) [Compound 21, 3-(4-((1-(4-hydroxyphenyl)-1H-1,2,3-triazol-4-)methoxy)-1-oxoisoindolin-2-) piperidine-2,6-dione] | < 150 |
| O=C1CCC(N2Cc3c(OCc4cn(Cc5ccccc5)nn4)cccc3C2=O)C(=O)N1 (stereo not drawn) [Compound 1] | < 150 |
| CC(n1cc(COc2cccc3c2CN(C2CCC(=O)NC2=O)C3=O)nn1)C12CC3CC(CC(C3)C1)C2 [Compound 88, 3-(4-((1-(1-((1S, 3S)-adamantan-1-yl)ethyl)-1H-1,2,3-triazol-4-yl)methoxy)-1-isoindolin-2-yl) piperidin-2,-6-dione] | < 150 |
| O=C1CCC(N2Cc3c(OCc4cn(Cc5ccc(CN6CCOCC6)cc5)nn4)cccc3C2=O)C(=O)N1 (stereo not drawn) [Compound 12, 3-(4-((1-(4-(morpholinomethyl)benzyl)-1H-1,2,3-triazol-4-)methoxy)-1-oxoisoindolin-2-) piperidine-2,6-dione] | < 150 |
| O=C1CCC(N2Cc3c(OCCc4cn(-c5ccccc5)nn4)cccc3C2=O)C(=O)N1 (stereo not drawn) [Compound 60, 3-(1-oxo-4-(2-(1-phenyl-1H-1,2,3-triazol-4-)ethoxy)isoindolin-2-) piperidine-2,6-dione] | > 20000 |
| O=C1CCC(N2Cc3c(OCc4cn(-c5ccc(OC6CC6)cc5F)nn4)cccc3C2=O)C(=O)N1 (stereo not drawn) [Compound 92, 3-(4-((1-(4-cyclopropoxy-2-fluorophenyl)-1H-1,2,3-triazol-4-yl)methoxy)-1-oxoisoindol-2-yl) piperidine-2,6-dione] | 150 to 20000 |
| C[C@@H](c1ccccc1)n1cc(COc2cccc3c2CN(C2CCC(=O)NC2=O)C3=O)nn1 (stereo partly drawn) [Compound 51] | < 150 |
| COC(=O)c1cccc(Cn2cc(COc3cccc4c3CN(C3CCC(=O)NC3=O)C4=O)nn2)c1 (stereo not drawn) [Compound 10, Methyl 3-((4-(((2-(2,6-dioxopiperidin-3-)-1-oxoisoindolin-4-)oxo)methyl)-1H-1,2,3-triazol-1-)methyl) benzoate] | < 150 |
| O=C1CCC(N2Cc3c(OCc4cn(CC5CCOCC5)nn4)cccc3C2=O)C(=O)N1 (stereo not drawn) [Compound 48, 3-(1-oxo-4-((1-((tetrahydro-2H-pyran-4-)methyl)-1H-1,2,3-triazol-4-)methoxy)isoindolin-2-) piperidine-2,6-dione] | 150 to 20000 |
| O=C1CCC(N2Cc3c(OCCC4CCN(c5ccnc6ccccc56)CC4)cccc3C2=O)C(=O)N1 (stereo not drawn) [Compound 68, 3-(1-oxo-4-(2-(1-(quinolin-4-)piperidin-4-)ethoxy)isoindolin-2-) piperidin-2,6-dione] | < 150 |
| Cc1cc(COc2cccc3c2CN(C2CCC(=O)NC2=O)C3=O)nn1-c1c(Cl)cc(OC(F)(F)F)cc1Cl (stereo not drawn) [Compound 85, 3-(4-((1-(2,6-dichloro-4-(trifluoromethoxy)phenyl)-5-methyl-1H-pyrazol-3-yl)methoxy)-1-isoindolin-2-yl)piperidine-2,6-dione] | < 150 |
| O=C1CCC(N2Cc3c(OCc4cn(Cc5cccnc5)nn4)cccc3C2=O)C(=O)N1 (stereo not drawn) [Compound 3] | 150 to 20000 |
| O=C1CCC(N2Cc3c(OCC4CCN(c5ccc(OC(F)(F)F)cc5)CC4)cccc3C2=O)C(=O)N1 (stereo not drawn) [Compound 73, 3-(1-oxo-4-((1-(4-(trifluoromethoxy)phenyl)piperidin-4-)methoxy)isoindolin-2-) piperidin-2,6-dione] | < 150 |
| O=C1CCC(N2Cc3c(OCc4cn(-c5cccc(N6CCOCC6)c5)nn4)cccc3C2=O)C(=O)N1 (stereo not drawn) [Compound 22, 3-(4-((1-(3-morpholinophenyl)-1H-1,2,3-triazol-4-)methoxy)-1-oxoisoindolin-2-) piperidine-2,6-dione] | < 150 |
